In patent US11013228B2, “Method of processing allograft skin for transplantation, and cryopreserved allograft skin produced thereby” (CG BIO CO., LTD., priority 2009, dated 2021):
Where “and” joins values, the source holds several entries; their conditions need not be identical. Identical values can stand only once.

Test system: pig skin
Assay: TUNEL assay, cell death rate according to sucrose concentration in the cryoprotectant
Type: cell-based
Settings: for cell death rate, AVE: average of 6 samples
Description: Because human skin tissue harvested from a donor (cadaver) is prohibited from being used in an experiment, pig skin—which is the closest to human skin—is used for preparing ten (10) of both cryopreserved skins and glycerol-preserved skins according to the following methods of Example and Comparative Example. To investigate the change of the cell death rate according to the difference of sucrose concentration, the cryopreserved allograft skin was prepared by the same method as in the Example except that the sucrose concentration in the cryoprotectant was 5, 10, 15, 20, 25, 30, 35 and 40 wt %, and it was then analyzed by TUNEL assay. TUNEL assay was carried out by using an In Situ Cell Death Detection Kit, Fluorescein (Roche, Germany) according to the manufacturer's instructions, and 4′,6-diamidino-2-phenylindole (DAPI) was used as a fluorescent marker. The results of cell death rate are shown in the following Table 1, and represented in FIG. 6 as a graph.

## OC[C@H]1O[C@@](CO)(O[C@H]2O[C@H](CO)[C@@H](O)[C@H](O)[C@H]2O)[C@@H](O)[C@@H]1O [Sucrose, sucrose]
Sucrose 25 to 40 wt % in the final concentration, Table 1 and FIG. 6
  cell death rate: quite low
Sucrose conc. 5 wt % in cryoprotectant
  cell death rate, AVE: 48%
Sucrose conc. 5 wt % in cryoprotectant, individual samples n 1-6
  cell death rate: 65% and 45% and 36% and 64% and 39% and 41%
Sucrose conc. 10 wt % in cryoprotectant
  cell death rate, AVE: 47%
Sucrose conc. 10 wt % in cryoprotectant, individual samples n 1-6
  cell death rate: 26% and 49% and 55% and 57% and 56% and 41%
Sucrose conc. 15 wt % in cryoprotectant
  cell death rate, AVE: 41%
Sucrose conc. 15 wt % in cryoprotectant, individual samples n 1-6
  cell death rate: 25% and 31% and 22% and 47% and 57% and 66%
Sucrose conc. 20 wt % in cryoprotectant
  cell death rate, AVE: 35%
Sucrose conc. 20 wt % in cryoprotectant, individual samples n 1-6
  cell death rate: 43% and 35% and 21% and 22% and 23% and 68%
Sucrose conc. 25 wt % in cryoprotectant
  cell death rate, AVE: 28%
Sucrose conc. 25 wt % in cryoprotectant, individual samples n 1-6
  cell death rate: 19% and 23% and 28% and 64% and 12% and 20%
Sucrose conc. 30 wt % in cryoprotectant
  cell death rate, AVE: 20%
Sucrose conc. 30 wt % in cryoprotectant, individual samples n 1-6
  cell death rate: 20% (2×) and 23% and 39% and 11% and 5%
Sucrose conc. 35 wt % in cryoprotectant
  cell death rate, AVE: 23%
Sucrose conc. 35 wt % in cryoprotectant, individual samples n 1-6
  cell death rate: 30% and 25% and 10% and 23% and 28% and 21%
Sucrose conc. 40 wt % in cryoprotectant
  cell death rate, AVE: 28%
Sucrose conc. 40 wt % in cryoprotectant, individual samples n 1-6
  cell death rate: 13% and 36% and 33% and 41% and 26% and 20%
